In patent publication US20260317344A1, “EGFR INHIBITORS FOR TREATING DISEASE” (BLOSSOMHILL THERAPEUTICS, INC., priority 2023, published 2026):

How the values were obtained:
Assay type in all cases: cell-based
[1] = test system: PC-9 cells; assay: 5-Day CellTiter Glo (CTG) cell proliferation assay, PC-9; settings: Homo sapiens; PC-9 cells (d746-750 EGFR), 5-day CTG proliferation, 120 hours; read-out: PC-9 IC50
Protocol: (§1) 5-Day CellTiter Glo (CTG) Cell Proliferation Assays (PC9, H1975, H827)
(§2) Cell proliferation assays were carried out in NSCLC cells with EGFR activation mutations. Both PC-9 cells and HCC827 cells (purchased from DSMZ) carry a Glu746-Ala750 deletion (d746-750) mutation in exon 19 of the EGFR gene and NCI-H1975 cells carry both L858R activation mutation and T790M gatekeeper mutation in the EGFR gene. One thousand PC-9, NCI-H1975 or HCC827 cells/100 μL per well were seeded in 96-well black plate with transparent bottom and then treated with indicated compounds in a 9-dose dilution series dispensed using TECAN d300e liquid dispenser. Cells were incubated with compounds for 120 hours at 37° C. and 5% CO2. Cell proliferation was measured using CellTiter-Glo 2.0 luciferase-based ATP detection assay (Promega, Madison, WI) at […] per well following the manufacturer's protocol. Plates were then read on a TECAN Sparks multimode microplate reader. Data was analyzed using GraphPad Prism 9 (GraphPad Software, San Diego, CA) to obtain IC50 values.

[2] = test system: NCI-H1975 cells; assay: 5-Day CellTiter Glo (CTG) cell proliferation assay, NCI-H1975; settings: Homo sapiens; NCI-H1975 cells (L858R/T790M EGFR), 5-day CTG proliferation, 120 hours; read-out: H1975 IC50
Protocol: as §1, §2

[3] = test system: HCC827 cells; assay: 5-Day CellTiter Glo (CTG) cell proliferation assay, HCC827; settings: Homo sapiens; HCC827 cells (d746-750 EGFR), 5-day CTG proliferation, 120 hours; read-out: HCC827 IC50
Protocol: as §1, §2

| IC50 [1] [nM] | IC50 [2] [nM] | IC50 [3] [nM] | SMILES |
| --- | --- | --- | --- |
| 34.2 | 40.5 | 8.87 | Cc1nn(C)c2c1-c1cc3c(n[nH]c3c(C)n1)/C=C/c1cnn(CCO)c1CN(C1CC1)C[C@H](C)O2 [Ex. 133, 2-[(10S,17E)-12-cyclopropyl-6,8,10,20-tetramethyl-2,8,10,11,12,13-hexahydro-14H-5,3-(azenometheno)tripyrazolo[3,4-f:3′,4′-j:4″,3″-n][1,4]oxazacyclopentadecin-14-yl]ethan-1-ol] |
| 17 | 56.8 | 3.32 | Cc1nn(C)c2c1-c1cc3c(n[nH]c3c(C)n1)/C=C/c1cnn([C@@H](C)CO)c1CN(C1CC1)[C@H](C)CO2 [Ex. 128, (2S)-2-[(11R,17E)-12-cyclopropyl-6,8,11,20-tetramethyl-2,8,10,11,12,13-hexahydro-14H-5,3-(azenometheno)tripyrazolo[3,4-f:3′,4′-j:4″,3″-n][1,4]oxazacyclopentadecin-14-yl]propan-1-ol] |
| 351 | 338 | 38.1 | CCOc1nn([C@@H](C)CO)c2c1/C=C/c1n[nH]c3c(O)nc(cc13)-c1c(C)nn(C)c1O[C@@H](C)CN(C)C2 [Ex. 99, (10S,17E)-16-ethoxy-14-[(2S)-1-hydroxypropan-2-yl]-6,8,10,12-tetramethyl-2,10,11,12,13,14-hexahydro-8H-5,3-(azenometheno)tripyrazolo[3,4-f:3′,4′-j:4″,3″-n][1,4]oxazacyclopentadecin-20-ol] |
| 0.54 | 0.7 | 0.29 | CCOc1nn([C@@H](C)CO)c2c1/C=C/c1n[nH]c3c(C)nc(cc13)-c1c(C)nn(C)c1O[C@@H](C)[C@@H](C)N(C)C2 [Ex. 132b, (2S)-2-[(11R,17E)-16-ethoxy-6,8,10,11,12,20-hexamethyl-2,8,10,11,12,13-hexahydro-14H-5,3-(azenometheno)tripyrazolo[3,4-f:3′,4′-j:4″,3″-n][1,4]oxazacyclopentadecin-14-yl]propan-1-ol] |
| 25.5 | 27.2 | 2.97 | CCOc1nn([C@@H](C)CO)c2c1/C=C/c1n[nH]c3c(OC)nc(cc13)-c1c(C)nn(C)c1O[C@@H](C)CN(C)C2 [Ex. 96, (2S)-2-[(10S,17E)-16-ethoxy-20-methoxy-6,8,10,12-tetramethyl-2,8,10,11,12,13-hexahydro-14H-5,3-(azenometheno)tripyrazolo[3,4-f:3′,4′-j:4″,3″-n][1,4]oxazacyclopentadecin-14-yl]propan-1-ol] |
| 353 | 671 | 60.5 | CCOc1nn(C)c2c1/C=C/c1n[nH]c3c(C)nc(cc13)-c1c(C)nn(C)c1O[C@@H](C)CN(C(C)=O)C2 [Ex. 131, 1-[(10S,17E)-16-ethoxy-6,8,10,14,20-pentamethyl-2,8,10,11,13,14-hexahydro-12H-5,3-(azenometheno)tripyrazolo[3,4-f:3′,4′-j:4″,3″-n][1,4]oxazacyclopentadecin-12-yl]ethan-1-one] |
| 1.12 | 0.77 | 0.41 | CCOc1nn([C@@H](C)CO)c2c1/C=C/c1n[nH]c3c(C)nc(cc13)-c1c(C)nn(C)c1O[C@H](C)[C@@H](C)N(C)C2 [Ex. 132a, (2S)-2-[(11R,17E)-16-ethoxy-6,8,10,11,12,20-hexamethyl-2,8,10,11,12,13-hexahydro-14H-5,3-(azenometheno)tripyrazolo[3,4-f:3′,4′-j:4″,3″-n][1,4]oxazacyclopentadecin-14-yl]propan-1-ol] |
| 4.35 | 429 | 0.82 | COCc1nn(C)c2c1-c1cc3c(n[nH]c3c(C)n1)/C=C/c1cnn([C@@H](C)CO)c1CN(C1CC1)C[C@H](C)O2 [Ex. 139, (2S)-2-[(10S,17E)-12-cyclopropyl-6-(methoxymethyl)-8,10,20-trimethyl-2,8,10,11,12,13-hexahydro-14H-5,3-(azenometheno)tripyrazolo[3,4-f:3′,4′-j:4″,3″-n][1,4]oxazacyclopentadecin-14-yl]propan-1-ol] |
| 0.37 | 0.58 | 0.24 | CCOc1nn([C@@H](C)CO)c2c1/C=C/c1n[nH]c3c(C)nc(cc13)-c1c(C)nn(C)c1O[C@@H](C)CN(CC)C2 [Ex. 145, (2S)-2-[(10S,17E)-16-ethoxy-12-ethyl-6,8,10,20-tetramethyl-2,8,10,11,12,13-hexahydro-14H-5,3-(azenometheno)tripyrazolo[3,4-f:3′,4′-j:4″,3″-n][1,4]oxazacyclopentadecin-14-yl]propan-1-ol] |
| 29.9 |  | 6.1 | COCc1nn(C)c2c1-c1cc3c(n[nH]c3c(C)n1)/C=C/c1cnn([C@@H](C)CO)c1CN(C1CC1)[C@H](C)CO2 [Ex. 140, (2S)-2-[(11R,17E)-12-cyclopropyl-6-(methoxymethyl)-8,11,20-trimethyl-2,8,10,11,12,13-hexahydro-14H-5,3-(azenometheno)tripyrazolo[3,4-f:3′,4′-j:4″,3″-n][1,4]oxazacyclopentadecin-14-yl]propan-1-ol] |
| 67 | 266 | 34.4 | CCOc1nn(C)c2c1/C=C/c1n[nH]c3c(C)nc(cc13)-c1c(C)nn(C)c1O[C@@H](C)CN(C(=O)C1CC1)C2 [Ex. 136, cyclopropyl[(10S,17E)-16-ethoxy-6,8,10,14,20-pentamethyl-2,8,10,11,13,14-hexahydro-12H-5,3-(azenometheno)tripyrazolo[3,4-f:3′,4′-j:4″,3″-n][1,4]oxazacyclopentadecin-12-yl]methanone] |
| 113 |  | 90.7 | CCOc1nn(C)c2c1/C=C/c1n[nH]c3c(C)nc(cc13)-c1c(C)nn(C)c1O[C@@H](C)CN(C(=O)C(C)C)C2 [Ex. 137, 1-[(10S,17E)-16-ethoxy-6,8,10,14,20-pentamethyl-2,8,10,11,13,14-hexahydro-12H-5,3-(azenometheno)tripyrazolo[3,4-f:3′,4′-j:4″,3″-n][1,4]oxazacyclopentadecin-12-yl]-2-methylpropan-1-one] |
| 21.6 | 519 | 9.09 | COCc1nn(C)c2c1-c1cc3c(n[nH]c3c(C)n1)/C=C/c1cnn(C)c1CN(C(=O)CCN(C)C)C[C@H](C)O2 [Ex. 143, 3-(dimethylamino)-1-[(10S,17E)-6-(methoxymethyl)-8,10,14,20-tetramethyl-2,8,10,11,13,14-hexahydro-12H-5,3-(azenometheno)tripyrazolo[3,4-f:3′,4′-j:4″,3″-n][1,4]oxazacyclopentadecin-12-yl]propan-1-one] |
| 116 |  | 73.8 | CCOc1nn(C)c2c1/C=C/c1n[nH]c3c(C)nc(cc13)-c1c(C)nn(C)c1O[C@@H](C)CN(C(=O)CC)C2 [Ex. 135, 1-[(10S,17E)-16-ethoxy-6,8,10,14,20-pentamethyl-2,8,10,11,13,14-hexahydro-12H-5,3-(azenometheno)tripyrazolo[3,4-f:3′,4′-j:4″,3″-n][1,4]oxazacyclopentadecin-12-yl]propan-1-one] |
| 2.32 | 176 | 0.75 | CCOc1nn([C@@H](C)CO)c2c1/C=C/c1n[nH]c3cnc(cc13)-c1c(COC)nn(C)c1O[C@@H](C)CN(C)C2 [Ex. 130, (2S)-2-[(10S,17E)-16-ethoxy-6-(methoxymethyl)-8,10,12-trimethyl-2,8,10,11,12,13-hexahydro-14H-5,3-(azenometheno)tripyrazolo[3,4-f:3′,4′-j:4″,3″-n][1,4]oxazacyclopentadecin-14-yl]propan-1-ol] |
